The text below walks through data of BindingDB's records for doi:10.1016/j.bmcl.2016.09.047 (Boehringer Ingelheim Pharmaceuticals, 2016).

Where “and” joins values, the source holds several entries; their conditions need not be identical. Equal values may be shown once.

The target in the first experiment is T1, C-C chemokine receptor type 10 (Homo sapiens, UniProt P46092).
T1 sequence (P46092 whole entry): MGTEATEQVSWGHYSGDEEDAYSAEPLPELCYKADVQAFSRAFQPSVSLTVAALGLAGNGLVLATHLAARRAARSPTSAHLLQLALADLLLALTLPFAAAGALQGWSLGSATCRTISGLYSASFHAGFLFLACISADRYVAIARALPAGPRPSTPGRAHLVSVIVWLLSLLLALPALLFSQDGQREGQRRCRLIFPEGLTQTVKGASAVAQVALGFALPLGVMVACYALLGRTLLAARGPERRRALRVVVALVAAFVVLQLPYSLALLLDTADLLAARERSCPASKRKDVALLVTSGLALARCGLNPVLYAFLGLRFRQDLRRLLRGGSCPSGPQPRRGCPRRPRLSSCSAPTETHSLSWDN
The experiment is described as follows: Antagonist activity at human CCR10 expressed in mouse BA/F3 cells assessed as inhibition of human CCL27-dependent chemotaxis.
Take `CC1CCN(C(=O)C(CCn2cccc2C#N)NS(=O)(=O)c2cc(Cl)c(N)c(Cl)c2)CC1` (centres undefined): the IC50 is 16 nM.

Target in a further experiment: not listed separately
The experiment is described as follows: Antagonist activity at human CCR10 expressed in mouse BA/F3 cells assessed as inhibition of human CCL27-dependent chemotaxis.
Regarding `CC1CCN(C(=O)C(CCn2ccnc2[N+](=O)[O-])NS(=O)(=O)c2cc(Cl)c(N)c(Cl)c2)CC1` (centres undefined), the IC50 is 53 nM and 50 nM.

Turning to `CC1CCN(C(=O)C(CCn2cccc2C#N)NS(=O)(=O)c2ccc3[nH]ccc3c2)CC1` (centres undefined), the IC50 is 13 nM.

Regarding `CC1CCN(C(=O)C(CCn2ccnc2Cl)NS(=O)(=O)c2cc(Cl)c(N)c(Cl)c2)CC1` (centres undefined), the IC50 was 251 nM.

With `CC1CCN(C(=O)[C@@H](CCc2ccccc2)NS(=O)(=O)c2cc(Cl)c(N)c(Cl)c2)CC1`, the IC50 worked out at 501 nM.

`CC1CCN(C(=O)C(CCn2nccn2)NS(=O)(=O)c2cc(Cl)c(N)c(Cl)c2)CC1` (centres undefined): the IC50 worked out at 1260 nM.

Regarding `CC1CCN(C(=O)C(CCn2cccn2)NS(=O)(=O)c2cc(Cl)c(N)c(Cl)c2)CC1` (centres undefined), the IC50 was determined as 1260 nM.

As to `Cc1ccc(S(=O)(=O)NC(CCn2cccc2C#N)C(=O)N2CCC(C)CC2)c(C)c1N` (centres undefined), the IC50 came out at 79 nM.

Take `CC1CCN(C(=O)C(CCn2cccc2C#N)NS(=O)(=O)c2ccc3cc[nH]c3c2)CC1` (centres undefined): the IC50 came out at 16 nM.

In general, IC50 refers to the concentration needed to halve the response being measured.
